Where “and” joins values, the source holds several entries; their conditions need not be identical. Identical values can stand only once.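 The compound was tested at five concentrations on cells cultured in 96-well plates, with a 48-hour exposure period. Here, GI50 denotes the concentration required for 50% inhibition of growth. TGI is the concentration that stops growth completely.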
Columns and labels:
Experiment in all cases: NCI-60 cell line screen, 48 h
[1] = tested on: 786-0 renal
[2] = tested on: CAKI-1 renal
[3] = tested on: HCC-2998 colon
[4] = tested on: MOLT-4 leukemia
[5] = tested on: NCI-H23 lung
[6] = tested on: OVCAR-4 ovarian
[7] = tested on: OVCAR-5 ovarian
[8] = tested on: OVCAR-8 ovarian
[9] = tested on: SW-620 colon
[10] = tested on: U251 CNS

Row | SMILES | TGI [1] | TGI [2] | TGI [3] | TGI [4] | TGI [5] | TGI [6] | TGI [7] | TGI [8] | TGI [9] | TGI [10] | GI50 [1] | GI50 [2] | GI50 [3] [µM] | GI50 [4] [µM] | GI50 [5] | GI50 [6] | GI50 [7] | GI50 [8] | GI50 [9] | GI50 [10]
1 | CN(C)C(=S)/N=c1\ss/c(=N\C(=S)N(C)C)n1-c1ccc(Cl)c(Cl)c1 | > 100 µM | > 100 µM | > 100 µM | > 100 µM | > 100 µM | > 100 µM | > 100 µM | > 100 µM | > 100 µM | > 100 µM |  |  |  |  |  |  |  |  |  | 
2 | COC(=O)/C(C#N)=C1\CCC(O)N1 (stereo not drawn) | > 100 µM | > 100 µM | > 100 µM | > 100 µM | > 100 µM | > 100 µM | > 100 µM | > 100 µM | > 100 µM | > 100 µM |  |  |  |  |  |  |  |  |  | 
3 | COc1cc2c(c(OC)n1)[C@]1(O)[C@H](O)[C@H](CN(C)C)[C@@H](c3ccccc3)[C@]1(c1ccc(C#N)cc1)O2 | 7.37 µM and 4.06 µM | 1.68 µM and 4.38 µM | 0.564 µM and 0.81 µM |  | 1.76 µM and 1.03 µM | 3.72 µM and 5.27 µM | 0.866 µM and 1.43 µM | 10.1 µM and 11.5 µM | 3.37 µM and 10.4 µM | 2.39 µM and 7.95 µM | 0.0443 µM and 0.0313 µM | 0.0276 µM and 0.0178 µM | < 0.01 | < 0.01 | 0.0182 µM and 0.0111 µM | 0.0371 µM and 0.0251 µM | 0.0208 µM and 0.0174 µM | 0.0292 µM and 0.0316 µM | 0.0124 µM and < 0.01 µM | 0.02 µM and < 0.0111 µM
4 | COc1ccc2[nH]c3c4c(ccc3c2c1)C(=O)C=CC4=O | 24.2 µM | 14.4 µM | 45.9 µM | 3.1 µM | 30.2 µM | 28.6 µM | 41.5 µM | 12.4 µM | 6.63 µM | 36.5 µM |  |  |  |  |  |  |  |  |  | 
5 | COc1cc2ccc3c4cc(OC)c(OC(C)C)cc4cnc3c2cc1OC | > 100 µM | > 100 µM | > 100 µM | > 100 µM | > 100 µM | > 100 µM | > 100 µM | > 100 µM | > 100 µM | > 100 µM |  |  |  |  |  |  |  |  |  | 
6 | COc1cc(C2=C(c3cn(C)c4ccccc34)COC2=O)cc(OC)c1OC | > 32.8 µM | 3.42 µM | 5.2 µM | > 28.2 µM | 3.04 µM | > 52.6 µM | > 100 µM | > 23.6 µM | > 100 µM | > 100 µM | 0.317 µM | 0.0531 µM | 0.429 | 0.055 | 0.233 µM | 1.27 µM | 0.479 µM | 0.338 µM | 0.0444 µM | 0.0731 µM
7 | O=c1[nH]cnc2cccc(Cl)c12 | > 100 µM | > 100 µM | > 100 µM | > 100 µM | > 100 µM | > 100 µM | > 100 µM | > 100 µM | > 100 µM | > 100 µM |  |  |  |  |  |  |  |  |  | 
8 | CC1=NN(C(=O)CC(=O)N(C(=O)c2ccccc2Cl)c2ccc(C)cc2)C(=O)C1N=Nc1ccc([N+](=O)[O-])cc1 (stereo not drawn) | > 68.5 µM | > 100 µM | > 100 µM | > 100 µM | > 100 µM | > 100 µM | > 100 µM | 78.1 µM | > 53.6 µM | 48.9 µM |  |  |  |  |  |  |  |  |  | 
9 | COc1cc2cccc(N=Cc3cccc(OC)c3OC(C)C)c2cc1OC | 37.8 µM | 42.9 µM | > 100 µM | 69.5 µM | 57.2 µM | 52.4 µM | > 100 µM | 53.1 µM | 48.8 µM | 49.9 µM |  |  |  |  |  |  |  |  |  | 
10 | CCOC(=O)CNC(=O)c1ccccc1Nc1ccnc(C(F)(F)F)c1 | > 90 µM | > 62.5 µM | > 100 µM | 54.3 µM | > 71.8 µM | > 100 µM | > 100 µM | > 82.8 µM | > 74.4 µM | > 62.1 µM | 52.6 µM | 20.9 µM | 71.3 | 17.7 | 31.5 µM | 43.7 µM | > 51.1 µM | > 50.8 µM | 29.9 µM | 34.3 µM
11 | C[C@@]12CCCc3coc(c31)C(=O)c1cc3c(cc12)C(=O)C=CC3=O | > 1 µM and 30.7 µM | > 1 µM and 28.5 µM | > 1 µM and 69.7 µM | > 1 µM and 6.16 µM | 29.7 µM | > 1 µM and 28.9 µM | > 1 µM and 36.4 µM | > 1 µM and 29.1 µM | > 1 µM and 20.1 µM | > 100 µM | > 1 µM | > 1 µM | > 1 | > 1 |  | > 1 µM | > 1 µM | > 1 µM | > 1 µM | > 1 µM
12 | NC(CS/C(Cl)=C/Cl)C(=O)O (stereo not drawn) | > 100 µM | > 100 µM | > 100 µM | > 100 µM | > 100 µM | > 100 µM | > 100 µM | > 100 µM | > 100 µM | > 100 µM | > 100 µM | 72.5 µM | 68.8 | 41.9 | 56.5 µM | 38.3 µM | > 100 µM | 24.1 µM | 39.8 µM | > 61 µM
13 | COc1cccc(/C(COc2ccc3c(c2)oc(=O)c2cc(OC)ccc23)=N/O)c1 | > 100 µM | > 100 µM | > 100 µM | > 100 µM | > 100 µM | > 100 µM | > 100 µM | > 100 µM | > 100 µM | > 100 µM | 9.66 µM | 6.7 µM | 7.78 | 5.61 | 33.4 µM | 18.8 µM | > 100 µM | 9.77 µM | 3.9 µM | 4.35 µM
14 | O=C1[C@H]2ON(c3ccccc3)C(c3ccc(Cl)cc3)[C@H]2C(=O)N1c1ccc(Cc2ccc(N3C(=O)[C@@H]4ON(c5ccccc5)C(c5ccc(Cl)cc5)[C@@H]4C3=O)cc2)cc1 (stereo partly drawn) | > 100 µM | > 100 µM | > 100 µM | > 100 µM | > 100 µM | > 100 µM | > 100 µM | > 100 µM | > 100 µM | > 100 µM |  |  |  |  |  |  |  |  |  | 
15 | C[C@]12CC[C@@H]3c4ccc(O)cc4CC[C@H]3[C@@H]1CC[C@@H]2NS(=O)(=O)c1cccc(F)c1 | 11.3 µM | 13.5 µM | 16.9 µM | 9.59 µM | 13.5 µM | 14.4 µM | 16.3 µM | 15.8 µM | 16.8 µM | 12.1 µM | 3.38 µM | 3.4 µM | 5.27 | 2.5 | 3.19 µM | 2.72 µM | 4.35 µM | 3.84 µM | 4.36 µM | 3.23 µM
16 | COc1ccc2c(c1)C(C)Cc1c(ncnc1-n1c(C)nc3ccccc31)N2C (stereo not drawn) | 29.2 µM | 78.8 µM | 16.4 µM | 12.5 µM | 18.5 µM | 61.8 µM | 39.8 µM | 40.1 µM | 28 µM | 17.7 µM | 5.83 µM | 4.48 µM | 4.09 | 2.39 | 3.08 µM | 6.24 µM | 13 µM | 4.83 µM | 6.24 µM | 4.51 µM
17 | CCOC(=O)c1c[nH]c2oc(/C=N/N3CC(CN4CCOCC4)OC3=O)cc2c1=O (stereo not drawn) | > 100 µM | > 100 µM | > 100 µM | > 100 µM | > 100 µM | > 100 µM | > 100 µM | > 100 µM | > 100 µM | > 100 µM |  |  |  |  |  |  |  |  |  | 
18 | C=CCNC(=O)N(CCC)CCCCC(NC(C)=O)C(=O)NCc1ccccc1 (stereo not drawn) | > 100 µM | > 100 µM | > 100 µM | > 100 µM | > 100 µM | > 100 µM | > 100 µM | > 100 µM | > 100 µM | > 100 µM |  |  |  |  |  |  |  |  |  | 
19 | O=C(Nc1ccc(Br)cc1)c1ccc(Cl)c(Cl)c1 | > 100 µM | 4.58 µM | > 71.7 µM | > 100 µM | 7.32 µM | > 100 µM | > 100 µM | > 100 µM | > 100 µM | > 100 µM | 3.92 µM | 1.51 µM | 3.99 | 3.17 | 2.32 µM | 3.78 µM | 3.9 µM | 4.2 µM | 3.59 µM | 3.27 µM
20 | COc1ccc2ncn(-c3cc(O[C@H](C)c4ccccc4Cl)c(C(N)=O)s3)c2c1 | 8.27 µM | > 25 µM | 5.51 µM | > 10.5 µM | > 18.3 µM | > 25 µM | > 25 µM | 20.8 µM | 3.69 µM | > 25 µM | 0.281 µM | 0.189 µM | 0.0348 | 0.0122 | 0.0197 µM | 0.869 µM | 0.0263 µM | 0.0274 µM | 0.00926 µM | 0.0234 µM
21 | O=C(Nc1cc(Cl)ccc1Cl)C(=O)C(c1cnc2ccccc2n1)[N+](=O)[O-] (stereo not drawn) | > 100 µM | > 100 µM | > 100 µM | > 100 µM | > 100 µM | > 100 µM | > 100 µM | > 100 µM | > 100 µM | > 100 µM |  |  |  |  |  |  |  |  |  | 
22 | COc1ccc2c(O)cc3c(c2c1)[C@H](CCl)CN3C(=O)c1cc2cc(NC(=O)CCN3CCOCC3)ccc2[se]1 | < 0.001 µM | < 0.001 µM | 0.00715 µM | > 3.34 µM | 0.00121 µM | 0.783 µM | 1.29 µM | 0.0843 µM | 1.05 µM | 0.385 µM | < 0.001 µM | < 0.001 µM | < 0.001 | < 0.001 | < 0.001 µM | < 0.001 µM | < 0.001 µM | < 0.001 µM | < 0.001 µM | < 0.001 µM
